{"source": "patent US10183039B2", "about": "“Methods for the production of collagen IV” (Vanderbilt University, priority 2013, dated 2019)", "key": {"PFHR-9 cells": {"system": "PFHR-9 cells", "assay": "Collagen IV sulfilimine crosslink formation in PFHR-9 cell culture (NC1 hexamer, SDS-PAGE)", "format": "cell-based, mouse", "conditions": "inhibitor present during cellular deposition of basement membrane; FIG. 2A: PHG 50 μM, MMI 1 mM, KI 10 mM, 3-AT 10 mM, BAPN 500 μM, putrescine 2.5 mM"}, "thyroid peroxidase": {"molecular_target": "T1, thyroid peroxidase (Homo sapiens, UniProt P07202)", "T1 sequence (P07202 19-933)": "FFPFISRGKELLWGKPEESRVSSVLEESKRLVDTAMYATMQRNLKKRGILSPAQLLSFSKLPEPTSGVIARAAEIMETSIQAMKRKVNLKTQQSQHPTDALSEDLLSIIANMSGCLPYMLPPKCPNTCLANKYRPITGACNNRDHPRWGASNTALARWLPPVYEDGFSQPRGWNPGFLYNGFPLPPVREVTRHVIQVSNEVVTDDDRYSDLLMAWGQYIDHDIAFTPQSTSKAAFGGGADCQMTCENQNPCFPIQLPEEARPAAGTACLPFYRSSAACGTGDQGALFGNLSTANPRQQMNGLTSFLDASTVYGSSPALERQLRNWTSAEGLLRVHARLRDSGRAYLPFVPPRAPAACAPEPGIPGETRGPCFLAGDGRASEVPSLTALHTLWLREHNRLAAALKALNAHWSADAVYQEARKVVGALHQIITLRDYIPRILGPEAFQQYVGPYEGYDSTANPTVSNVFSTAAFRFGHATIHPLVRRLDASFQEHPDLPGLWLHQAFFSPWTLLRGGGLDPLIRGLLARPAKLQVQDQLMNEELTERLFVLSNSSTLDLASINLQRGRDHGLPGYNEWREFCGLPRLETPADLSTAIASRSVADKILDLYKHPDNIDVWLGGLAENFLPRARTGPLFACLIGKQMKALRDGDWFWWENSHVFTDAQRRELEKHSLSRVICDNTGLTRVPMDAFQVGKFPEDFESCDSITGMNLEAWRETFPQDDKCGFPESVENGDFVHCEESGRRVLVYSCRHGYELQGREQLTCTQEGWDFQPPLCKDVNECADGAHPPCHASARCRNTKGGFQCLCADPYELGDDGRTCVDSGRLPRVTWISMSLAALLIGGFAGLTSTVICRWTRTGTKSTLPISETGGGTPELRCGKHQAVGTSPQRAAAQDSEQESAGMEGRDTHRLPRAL", "conditions": "cited from earlier work"}, "myeloperoxidase": {"molecular_target": "T2, myeloperoxidase (Homo sapiens, UniProt P05164)", "T2 sequence (P05164 49-745)": "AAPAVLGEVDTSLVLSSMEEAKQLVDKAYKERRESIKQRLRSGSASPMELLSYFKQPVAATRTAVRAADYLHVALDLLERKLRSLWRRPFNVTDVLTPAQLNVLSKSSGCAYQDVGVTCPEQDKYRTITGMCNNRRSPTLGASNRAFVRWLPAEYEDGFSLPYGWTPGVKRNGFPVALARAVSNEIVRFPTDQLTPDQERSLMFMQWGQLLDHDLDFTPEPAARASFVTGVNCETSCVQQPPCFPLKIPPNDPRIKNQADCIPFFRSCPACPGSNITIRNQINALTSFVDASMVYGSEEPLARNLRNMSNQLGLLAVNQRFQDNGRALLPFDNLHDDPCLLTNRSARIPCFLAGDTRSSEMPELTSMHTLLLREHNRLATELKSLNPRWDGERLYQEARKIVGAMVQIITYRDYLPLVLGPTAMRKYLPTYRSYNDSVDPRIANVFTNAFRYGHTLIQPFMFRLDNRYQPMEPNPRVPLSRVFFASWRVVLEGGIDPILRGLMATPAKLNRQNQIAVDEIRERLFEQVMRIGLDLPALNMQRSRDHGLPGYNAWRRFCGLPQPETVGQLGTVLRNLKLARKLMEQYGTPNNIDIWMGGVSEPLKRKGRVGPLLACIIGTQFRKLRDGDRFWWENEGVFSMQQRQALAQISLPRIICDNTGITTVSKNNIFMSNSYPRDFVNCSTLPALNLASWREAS", "conditions": "cited from earlier work"}, "[1]": {"molecular_target": "horseradish peroxidase (HRP) (Armoracia rusticana, UniProt P00433)", "sequence (P00433 31-338 limits assumed)": "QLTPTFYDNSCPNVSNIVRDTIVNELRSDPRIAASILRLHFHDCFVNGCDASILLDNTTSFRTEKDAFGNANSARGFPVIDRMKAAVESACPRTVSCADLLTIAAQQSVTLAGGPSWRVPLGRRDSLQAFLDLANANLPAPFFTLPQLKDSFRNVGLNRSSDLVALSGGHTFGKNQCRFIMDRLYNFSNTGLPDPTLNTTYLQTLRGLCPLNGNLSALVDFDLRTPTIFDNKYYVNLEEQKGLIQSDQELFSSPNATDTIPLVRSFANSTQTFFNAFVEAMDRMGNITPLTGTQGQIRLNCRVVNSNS", "conditions": "with H2O2; cited from earlier work"}, "[2]": {"system": "PFHR-9 basement membrane collagen IV", "assay": "HEK293 cell overlay on uncrosslinked PFHR-9 collagen IV networks", "format": "cell-based, mouse", "conditions": "HEK293 cells plated on uncrosslinked PFHR-9 basement membrane; PHG 50 μM where present", "description": "FIGS. 5A-D—Peroxidasin uniquely crosslinks native collagen IV networks. (FIG. 5A) Experimental design of ‘overlay’ experiments. PFHR-9 cells were grown in the presence of phloroglucinol (PHG; 50 μM) to deposit uncrosslinked collagen IV (Col IV) networks. The cells were then removed, and the basement membrane was extracted with 4 M guanidine (Gdn) to inactivate endogenous peroxidasin. Cells stably transfected with human peroxidasin (PXDN) or untransfected HEK293 cells (WT HEK) were plated on top of the PFHR9 basement membrane, which was subsequently analyzed for collagen IV crosslink content. (FIG. 5B) Collagen IV-sulfilimine bond formation in the indicated experimental conditions as shown by stained SDS-PAGE gel. Two (WT HEK cells) or three (PXDN, with or without PHG) out of five independent experiments are shown. MW, molecular weight. (FIG. 5C) Coomassie blue-stained gel of collagen IVNC1 hexamers isolated from uncrosslinked PFHR-9 basement membrane overlaid with HEK293T cells transiently transfected with human peroxidasin cDNA, mouse myeloperoxidase cDNA (MPO), mouse lactoperoxidase cDNA (LPO) or empty vector (Mock). […]\nPFHR-9 cells were grown in the presence of 50 μM phloroglucinol to produce noncrosslinked collagen IV. […] Plates were incubated for 24-48 h, and collagen IV was analyzed for NC1 crosslink formation. […]"}, "Drosophila eggs": {"system": "Drosophila eggs", "conditions": "PHG in the food, excess dietary (100 μM) Br^−", "experimental": "All eggs deposited in a quadrant of a 55 mm laying cage were moved to a fresh phytagel surface and oriented with dorsal appendages facing the surface for quantitation of the aspect ratio which is calculated by dividing the anterior-posterior axis length by the egg's diameter. Eggs were collected after 168 hours of exposure to standard or experimental diets.\n(FIG. 18B) Br^− concentration effect on egg aspect ratio, in single age-matched cohort of w^1118 flies, over time. Vertical axis represents mean aspect ratio (±S.E.M). […] Inset plotted as mean±95% C.I. and significance calculated with the Kruskall-Wallis test. […] PHG was administered in the food. All wild-type (w^1118) mothers were from the same cohort and reared identically, then divided into sub-cohorts for exposure to the indicated experimental diet."}, "peroxidase": {"molecular_target": "peroxidase (Drosophila melanogaster, UniProt Q9VZZ4)", "sequence (Q9VZZ4 24-1527)": "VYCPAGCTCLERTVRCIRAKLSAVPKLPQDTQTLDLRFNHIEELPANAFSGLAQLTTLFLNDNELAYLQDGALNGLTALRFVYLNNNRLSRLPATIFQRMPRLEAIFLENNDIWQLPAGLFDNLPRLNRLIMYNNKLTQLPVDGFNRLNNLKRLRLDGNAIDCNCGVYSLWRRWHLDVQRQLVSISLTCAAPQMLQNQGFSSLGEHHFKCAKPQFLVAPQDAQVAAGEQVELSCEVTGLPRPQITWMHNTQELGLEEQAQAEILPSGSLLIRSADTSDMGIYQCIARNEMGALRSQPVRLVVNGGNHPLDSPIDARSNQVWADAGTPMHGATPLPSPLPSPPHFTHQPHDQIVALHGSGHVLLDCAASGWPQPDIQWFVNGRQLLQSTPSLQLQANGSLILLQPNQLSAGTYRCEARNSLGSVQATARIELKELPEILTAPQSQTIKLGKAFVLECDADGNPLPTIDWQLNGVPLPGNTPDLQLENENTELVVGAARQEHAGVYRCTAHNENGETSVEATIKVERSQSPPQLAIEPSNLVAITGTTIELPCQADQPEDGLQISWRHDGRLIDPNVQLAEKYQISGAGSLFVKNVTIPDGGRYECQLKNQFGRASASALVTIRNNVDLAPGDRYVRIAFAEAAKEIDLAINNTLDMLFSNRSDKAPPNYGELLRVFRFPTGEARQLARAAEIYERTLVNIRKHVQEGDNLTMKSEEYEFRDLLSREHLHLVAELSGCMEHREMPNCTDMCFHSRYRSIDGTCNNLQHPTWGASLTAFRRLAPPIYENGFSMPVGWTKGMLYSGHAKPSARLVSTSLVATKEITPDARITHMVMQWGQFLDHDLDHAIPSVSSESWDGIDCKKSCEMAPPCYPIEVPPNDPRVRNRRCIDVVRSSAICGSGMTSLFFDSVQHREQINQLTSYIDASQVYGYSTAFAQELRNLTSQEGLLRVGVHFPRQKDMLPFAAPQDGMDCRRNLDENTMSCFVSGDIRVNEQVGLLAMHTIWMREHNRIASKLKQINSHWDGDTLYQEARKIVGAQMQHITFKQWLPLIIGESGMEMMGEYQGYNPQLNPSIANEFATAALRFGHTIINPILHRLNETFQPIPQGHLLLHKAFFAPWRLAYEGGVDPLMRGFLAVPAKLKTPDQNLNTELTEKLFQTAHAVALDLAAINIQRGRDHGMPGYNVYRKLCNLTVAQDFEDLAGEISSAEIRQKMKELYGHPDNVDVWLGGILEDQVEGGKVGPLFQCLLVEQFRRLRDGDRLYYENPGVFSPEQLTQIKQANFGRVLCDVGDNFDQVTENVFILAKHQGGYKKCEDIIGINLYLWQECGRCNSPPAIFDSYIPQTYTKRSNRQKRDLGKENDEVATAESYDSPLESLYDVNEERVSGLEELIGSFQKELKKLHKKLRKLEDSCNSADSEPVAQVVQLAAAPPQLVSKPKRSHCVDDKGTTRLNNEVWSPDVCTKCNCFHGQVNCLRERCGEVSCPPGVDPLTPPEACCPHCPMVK", "conditions": "Nelson et al., 1994; read-out: half-maximum inhibitory concentration (IC50); cited from earlier work"}, "transglutaminase": {"system": "transglutaminase", "conditions": "Candi et al., 1995; cited from earlier work"}, "Lysyl oxidase": {"molecular_target": "T3, Lysyl oxidase (Bos taurus, UniProt P33072)", "T3 sequence (P33072 170-418)": "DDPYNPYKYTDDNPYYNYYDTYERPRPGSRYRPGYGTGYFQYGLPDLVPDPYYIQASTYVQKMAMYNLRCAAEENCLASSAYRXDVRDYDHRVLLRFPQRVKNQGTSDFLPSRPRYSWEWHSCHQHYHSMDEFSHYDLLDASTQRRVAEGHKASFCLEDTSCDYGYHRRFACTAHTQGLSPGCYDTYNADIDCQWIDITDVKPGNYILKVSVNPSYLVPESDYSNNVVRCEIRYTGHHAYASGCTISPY", "conditions": "Tang et al., 1983; cited from earlier work"}, "collagen IV NC1 hexamer": {"system": "collagen IV NC1 hexamer", "assay": "Purified peroxidases reacted with uncrosslinked NC1 hexamer and H2O2", "format": "biochemical, mouse", "conditions": "16 nM enzyme, 500 nM NC1 hexamer, 10 μM H2O2, 1×PBS", "description": "(§1) (FIG. 3A) SDS-PAGE of reactions consisting of 16 nM purified human peroxidasin (PXDN), 500 nM monomeric NC1 hexamer (3 μM potential crosslinks) and 10 μM H2O2 in 1×PBS. Control reactions without H2O2 or in the presence of the peroxidase inhibitor phloroglucinol (PHG; 50 μM) were also conducted. D represents crosslinked dimeric NC1 subunits, and M denotes uncrosslinked monomeric subunits. MW, molecular weight. (FIG. 3B) Coomassie blue-stained gel after SDS-PAGE of collagen IVNC1 hexamer is shown to illustrate relative amounts of sulfilimine-crosslinked dimeric (D) and uncrosslinked monomeric (M) subunits after incubation of uncrosslinked PFHR-9 basement membranes in varying buffer halide concentrations (Br— or Cl— as K+ salt) with or without 1 mM H2O2. (FIG. 3C) PXDN-mediated hypohalous acid (HOX) production expressed as nmol hypohalous acid generated per nmol enzyme per min, measured in 1×PBS plus 100 μM NaBr. Values represent mean±s.e.m. (n=3). (FIG. 3D) HOCl production measured directly in 1×PBS without added Br—. Values denote mean±s.e.m. (n=4). […] (FIG. 3E) HOX production, measured in nmol HOX generated per nmol enzyme per min for myeloperoxidase (MPO), eosinophil peroxidase (EPO) or LPO in 1×PBS plus 100 μM NaBr. Values represent mean±s.e.m. (n=3).\nPHG, phloroglucinol; MW, molecular weight.\nIf peroxidasin uses hypohalous acids as intermediates to form sulfilimine bonds, these intermediates should recapitulate the reaction when directly added to purified, uncrosslinked collagen IV NC1 hexamer. […] Alternatively, other peroxidasesis provided to form reactive hypohalous acids."}, "[3]": {"assay": "Hypohalous acid production by peroxidases (taurine haloamine trapping)", "format": "biochemical", "conditions": "for hypohalous acid formation: 1×PBS plus 100 μM NaBr or without added Br—; for HOCl production: 1×PBS without added Br— (FIG. 3D)", "description": "as §1\nHypohalous acids were trapped as stable taurine haloamines, which oxidize tetramethylbenzidine to yield a colorimetric measure of hypohalous acid concentration and production (Dypbukt et al., 2005).\nAnimal heme peroxidases, such as peroxidasin, myeloperoxidase, eosinophil peroxidase and lactoperoxidase, catalyze oxidative reactions using distinct halogenation and peroxidase cycles (Obinger, 2006). Both begin with hydrogen peroxide oxidation of the prosthetic heme iron to form an intermediate denoted compound I (Obinger, 2006). Compound I may oxidize halides into their respective hypohalous acids (or related oxidants in equilibrium), which may directly or indirectly halogenate susceptible moieties. Alternatively, compound I undergoes sequential reduction to form single electron-free radicals of energetically favorable substrates in the peroxidase cycle. Both pathways eventually regenerate reduced, native enzyme (Obinger, 2006). To determine whether peroxidasin forms sulfilimine bonds using a halogenation cycle, the inventors first tested whether peroxidasin crosslinks collagen IV in the absence of halides."}}, "note": "Where two headings read alike, the source gives them in different places.", "data": [{"compound": "Nc1nc[nH]n1", "note": "[3-aminotriazole]", "values": [{"measurement": "formation of collagen IV crosslinks", "setting": "PFHR-9 cells", "result": "prevented formation of collagen IV crosslinks"}, {"measurement": "inhibition of thyroid peroxidase", "setting": "thyroid peroxidase; 2 mM", "result": "near-complete inhibition"}, {"measurement": "inhibition of myeloperoxidase", "setting": "myeloperoxidase; 10 mM", "result": "near-complete inhibition"}]}, {"compound": "[N-]=[N+]=[N-]", "note": "[azide]", "values": [{"measurement": "Ki", "setting": "[1]", "result": 1470, "unit": "µM"}, {"measurement": "kinact", "setting": "[1]", "result": 0.69, "unit": "min⁻¹"}]}, {"compound": "Cn1cc[nH]c1=S", "note": "[methimazole]", "values": [{"measurement": "formation of collagen IV crosslinks", "setting": "PFHR-9 cells", "result": "prevented formation of collagen IV crosslinks"}, {"measurement": "IC50", "setting": "thyroid peroxidase", "result": 0.8, "unit": "µM"}, {"measurement": "inhibition of myeloperoxidase", "setting": "myeloperoxidase; 3 mM", "result": 70, "unit": "%"}]}, {"compound": "Oc1cc(O)cc(O)c1", "note": "[phloroglucinol, reference compound]", "values": [{"measurement": "formation of collagen IV crosslinks", "setting": "PFHR-9 cells", "result": "prevented formation of collagen IV crosslinks"}, {"measurement": "crosslinking of native collagen IV network by overlaid cells", "setting": "[2]", "result": "failed to crosslink collagen IV"}, {"measurement": "egg aspect ratio under peroxidasin inhibition", "setting": "Drosophila eggs", "result": "dose-dependent suppression in egg aspect ratio"}, {"measurement": "egg aspect ratio under peroxidasin inhibition", "setting": "Drosophila eggs; listed as PHG", "result": "dose-dependent reduction in the exaggerated egg elongation"}, {"measurement": "IC50", "setting": "peroxidase", "result": 0.5, "unit": "µM"}]}, {"compound": "NCCCCN", "note": "[putrescine]", "values": [{"measurement": "formation of collagen IV crosslinks", "setting": "PFHR-9 cells", "result": "had no effect"}, {"measurement": "Km", "setting": "transglutaminase", "result": "26 to 847", "unit": "µM"}]}, {"compound": "N#CCCN", "note": "[β-aminopropionitrile]", "values": [{"measurement": "formation of collagen IV crosslinks", "setting": "PFHR-9 cells", "result": "had no effect"}, {"measurement": "IC50", "setting": "Lysyl oxidase", "result": "3 to 8", "unit": "µM"}]}, {"compound": "eosinophil peroxidase: animal heme peroxidase used as comparator", "values": [{"measurement": "formation of sulfilimine crosslinks in NC1 hexamer", "setting": "collagen IV NC1 hexamer", "result": "formed sulfilimine crosslinks in collagen IV"}, {"measurement": "hypohalous acid formation", "setting": "[3]", "result": "primarily yielded hypobromous acid"}]}, {"compound": "lactoperoxidase: animal heme peroxidase used as comparator", "values": [{"measurement": "formation of sulfilimine crosslinks in NC1 hexamer", "setting": "collagen IV NC1 hexamer", "result": "poorly catalyzed crosslink formation"}, {"measurement": "hypohalous acid formation", "setting": "[3]", "result": "formed neither hypohalous acid"}, {"measurement": "HOCl production", "setting": "[3]", "result": "not statistically different from zero"}]}, {"compound": "peroxidasin: heterologously expressed and purified human peroxidasin, a basement membrane heme peroxidase", "values": [{"measurement": "formation of sulfilimine crosslinks in NC1 hexamer", "setting": "collagen IV NC1 hexamer", "result": "robust formation of crosslinked dimeric subunits"}, {"measurement": "hypohalous acid formation", "setting": "[3]", "result": "formed hypobromous and hypochlorous acid at modest rates with a preference for bromide"}, {"measurement": "HOCl production", "setting": "[3]", "result": "significantly greater than that mediated by lactoperoxidase"}, {"measurement": "crosslinking of native collagen IV network by overlaid cells", "setting": "[2]", "result": "Only peroxidasin formed sulfilimine bonds in collagen IV"}]}]}
